This is an account of results in publication doi:10.1101/2024.05.16.594348v1 (bioRxiv, 2024).

For data set [1], the system named is hUVECs. The data set is described as follows: Peptide degradation in media on top of cells. Type of data set: in vitro ADME, human. The settings on record: 24 h, LCMS.
The subject of data set [2] is hMSCs. The data set is described as follows: Peptide degradation in media on top of cells. Type of data set: in vitro ADME, human. The settings on record: 24 h, LCMS.
For data set [3], the system named is hUVECs. The data set is described as follows: Viability of hUVECs in peptide-crosslinked PEG hydrogels. Type of data set: cell-based, human.
The subject of data set [4] is hMSCs. The data set is described as follows: Peptide degradation in Cells condition with MMP-14 inhibitor, hMSCs. The format is in vitro ADME, human. The settings on record: 50 μM peptide, MMP-14 inhibitor NSC 405020, 24 h, LCMS; text to Fig. 4.
Data set [5] can be described thus: Peptide degradation in cell-free conditioned media. The format is in vitro ADME, human. The settings on record: initial peptide library, 24 h, LCMS, text to Fig. 2B.
In data set [6] the test system is hMSCs. The data set is described as follows: Cell spreading of hMSCs in peptide-crosslinked PEG hydrogels. Type of data set: cell-based, human. Particulars: PEG hydrogels containing hMSCs or hUVECs at 20 million cells/mL, up to Day 7.
The nature of data set [7]: Peptide degradation in cell-free conditioned media. Particulars: initial peptide library, 24 h, LCMS, text to Fig. 2B. The format is in vitro ADME, human. The source holds these as a separate data set.
The mark [8] stands for this setting: individually synthesized peptides, 50 μM, text to Fig. 4.
[9] abbreviates: initial peptide library, text to Fig. 2B.

Where a SMILES comes first, the peptide text is derived from it. [ ]: non-standard residue; d: D form. βAla = NCCC(=O)O

Take `CSCC[C@H](NC(=O)[C@H](CC(C)C)NC(=O)[C@H](CC(=O)O)NC(=O)[C@H](C)NC(=O)[C@@H](NC(=O)[C@H](CC(C)C)NC(=O)[C@H](CCCCN)NC(=O)CCNC(C)=O)C(C)C)C(=O)N[C@@H](C)C(=O)N[C@@H](CO)C(=O)N[C@@H](C)C(=O)N[C@@H](CCC(=O)O)C(=O)NCCC(N)=O` [KLVAD-LM] (Ac-[βAla]KLVADLMASAE[βAla]-NH2): in data set [1] (setting [8]), the “degradation in the cells condition, hUVECs” value (from here on “degradation … hUVECs”) was 16%. The “degradation in the cells condition, hMSCs” value in data set [2] (setting [8]) worked out at 54%.

GPQGIWGQ [PanMMP, reference compound]: in data set [3] (PanMMP compared with the KLVAD peptides, DNA quantification, Fig. 6D), the “hUVEC cell number after seven days in crosslinked gels, difference” value was “not significant”. In addition, in data set [3] (compared with the KLVAD peptides, alamarBlue, Fig. 6C), the “hUVEC metabolic activity after seven days in crosslinked gels” value is listed as “higher metabolic activity”. Besides, the “degradation … hUVECs” value in data set [1] (setting [9]) came out at 31%. Moreover, the “degradation in the Cells + Inhibitor condition, hMSCs” value in data set [4] amounted to 22%. Also, the “degradation in the cells condition, hMSCs” value in data set [2] (setting [8]) was determined as 65%; in data set [2] (setting [9]), 61%.

Regarding KLVADNYASAE, the “degradation in media condition, hMSC” value in data set [5] was “less than 3%”. In addition, in data set [6], the “cytotoxicity of hydrogels crosslinked by the peptide” value is “cytotoxic”. The “degradation in media condition, hUVEC” value in data set [7] is reported as “less than 3%”. In addition, the results for the “degradation … hUVECs” value in data set [1] (setting [8]) and in data set [1] (setting [9]) were 4% and 8%, respectively. In addition, the “degradation in the cells condition, hMSCs” value was 22% in data set [2] (setting [8]) and 30% in data set [2] (setting [9]).
